How the values were obtained:
Experiment in all cases: MTT proliferation assay, single agent
Assay type in all cases: cell-based
[1] = tested on: 435S; conditions: Melanoma (melanocyte), BRAF V600E, 72 h, mean of several independent experiments
Procedure: (§1) The compound of formula (1) was tested using a Thiazolyl Blue Tetrazolium Bromide (MTT) proliferation assay in a panel of tumor cell lines of different origins.
(§2) All culture materials were obtained from Biological Industries (Kibbutz Beit Haemek, Israel) or Invitrogen (Paisley, Scotland, United Kingdom). The non-tumor cell lines HF and HACAT were provided by Vall d'Hebrón Hospital and GmbH, respectively. The PC9 naïve cell line was provided by Mayumi Ono and, the H3122, HCC78 and 11-18 by Daniel Costa. The PC9-GR1, PC9-GR2, PC9-GR3, PC9-GR4, PC9-GR5 and PC9-ER cell lines were derived in house by exposing the parental PC9 cell line to increasing concentrations of erlotinib (ER) or gefitinib (GR). The rest of the cell lines in which compound (1) was tested were purchased from ATCC (H23, H1975, H2228, A549, H460, Calu-6, H1650, SK-MES-1, EBC1, SNU1, AGS, N87, PC3, BxPC3, DLD1, HT29, SW48, SCC9,FaDu, AU565, Gingival, Prostate, SU-DHL-1 and A431). All cell lines were maintained in RPMI medium supplemented with 10% FBS, 50 µg/mL penicillin-streptomycin and 2 mM L-Glutamine. All cells were grown in a humidified atmosphere with 5% CO2 at 37°C.
(§3) Cell viability in response to single agent treatment was assessed by the Thiazolyl Blue Tetrazolium Bromide (MTT) (Sigma, St Louis, MO) assay. Cells from each cell line were seeded at 2000 to 10000 per well in 96-well plates. […] After treatment, cells were incubated with medium containing MTT (0.75 mg/mL in medium) for 1-2 h at 37°C. Culture medium with MTT was removed and formazan crystals reabsorbed in 100 µL DMSO (Sigma, St. Louis, MO). Cell viability was determined by measuring the absorbance at 492 nm, using a microplate reader (BioWhittaker, Walkersville, MD).
(§4) The IC50s shown are the mean of several independent experiments. Standard errors are also listed Table 2. SCC means squamous cell carcinoma, ADC means adenocarcinoma, GBM means glioblastoma.

[2] = tested on: A549; conditions: Homo sapiens, Lung ADC, KRAS, 72 h, mean of several independent experiments
Procedure: as §1, §2, §3, §4

[3] = tested on: BxPC3; conditions: Homo sapiens, BXPC-3, Pancreas, mut TP53, 72 h, mean of several independent experiments
Procedure: as §1, §2, §3, §4

[4] = tested on: H11-18; conditions: Lung ADC, EGFR ex21, 72 h, mean of several independent experiments
Procedure: as §1, §2, §3, §4

[5] = tested on: H2228; conditions: Homo sapiens, NCI-H2228, Lung ADC, ALK-EML4 (v3), 72 h, mean of several independent experiments
Procedure: as §1, §2, §3, §4

[6] = tested on: H2286; conditions: Homo sapiens, NCI-H2286, SCC Lung, DDR2 mutated, 72 h, mean of several independent experiments
Procedure: as §1, §2, §3, §4

[7] = tested on: H23; conditions: Homo sapiens, NCI-H23, Lung ADC, KRAS, 72 h, mean of several independent experiments
Procedure: as §1, §2, §3, §4

[8] = tested on: H3122; conditions: Homo sapiens, NCI-H3122, Lung ADC, ALK-EML4 (v1), 72 h, mean of several independent experiments
Procedure: as §1, §2, §3, §4

[9] = tested on: H322; conditions: NCI-H322, Lung BAC, CD74-NRG1, 72 h, mean of several independent experiments
Procedure: as §1, §2, §3, §4

[10] = tested on: HCC366; conditions: SCC Lung, DDR2 mutated, 72 h, mean of several independent experiments
Procedure: as §1, §2, §3, §4

[11] = tested on: HCC78; conditions: Homo sapiens, Lung ADC, ROS1-SLC34A2, 72 h, mean of several independent experiments
Procedure: as §1, §2, §3, §4

[12] = tested on: HT29; conditions: Homo sapiens, HT-29, Colon ADC, BRAF V600E, 72 h, mean of several independent experiments
Procedure: as §1, §2, §3, §4

[13] = tested on: SCC9; conditions: Homo sapiens, SCC-9, SCC Head&Neck, DDR2 wt, 72 h, mean of several independent experiments
Procedure: as §1, §2, §3, §4

[14] = tested on: SK-MES-1; conditions: Homo sapiens, SCC Lung, DDR2 wt, 72 h, mean of several independent experiments
Procedure: as §1, §2, §3, §4

[15] = tested on: U118MG; conditions: Homo sapiens, U-118-MG, GBM, ROS1-FIG, 72 h, mean of several independent experiments
Procedure: as §1, §2, §3, §4

[16] = tested on: UACC903; conditions: Homo sapiens, UACC-903, Melanoma, BRAF V600E, 72 h, mean of several independent experiments

`Cn1c(=O)c(-c2c(Cl)cccc2Cl)cc2c(N)nc(Nc3ccccc3)nc21` [Compound (1), 4-amino-6-(2,6-dichlorophenyl)-8-methyl-2-(phenylamino)-pyrido[2,3-d]pyrimidin-7(8H)-one] showed an IC50 [1] of 1 µM, an IC50 [2] of 0.49 µM and an IC50 [3] of 1.8 µM. The IC50 [4] was 4.9 µM, the IC50 [5] was 1.36 µM and the IC50 [6] was 0.05 µM. For the same compound, the IC50 [7] was 1.57 µM, the IC50 [8] was 1.34 µM and the IC50 [9] was 4.35 µM. It also gave an IC50 [10] of 0.83 µM, an IC50 [11] of 0.92 µM and an IC50 [12] of 2 µM. It also gave an IC50 [13] of 4.35 µM, an IC50 [14] of 0.57 µM and an IC50 [15] of 2.6 µM. For the same compound, the IC50 [16] was 3.35 µM.

From patent EP3120851A1, “4-AMINO-6-(2,6-DICHLOROPHENYL)-8-METHYL-2-(PHENYLAMINO)-PYRIDO[2,3-D]PYRIMIDIN-7(8H)-ONE FOR TREATMENT OF SOLID CANCERS” (Pangaea Biotech S.L., priority 2015, dated 2017)
